ChEMBL document CHEMBL5329199, “Discovery of novel dual Bruton's tyrosine kinase (BTK) and Janus kinase 3 (JAK3) inhibitors as a promising strategy for rheumatoid arthritis” (Bioorg Med Chem, 2023)

Columns and labels:
[1] = Acute toxicity in po dosed ICR mouse assessed as minimum lethal dose measured for 7 days; format: organism-based; details: in vivo, 168 h, time 7 day
[2] = Cmax in Sprague-Dawley rat at 50 mg/kg, po measured for 720 mins by LC/MS analysis; format: ADME, organism-based; set-up: dose 50 mg/kg, time 720 min, route po; details: in vivo
[3] = Cytotoxicity against HUVEC cells incubated for 48 hrs by MTT assay; format: toxicity, cell-based; details: human
[4] = Cytotoxicity against mouse RAW264.7 cells incubated for 24 hrs by MTT assay; format: toxicity, cell-based
[5] = AUC(all) in Sprague-Dawley rat at 50 mg/kg, po measured for 720 mins by LC/MS analysis; format: ADME, organism-based; set-up: dose 50 mg/kg, time 720 min, route po; details: in vivo
[6] = Observed MRT(infinity) in Sprague-Dawley rat at 5 mg/kg, iv measured for 720 mins by LC/MS analysis; format: ADME, organism-based; details: in vivo
[7] = Cytotoxicity against human L02 cells incubated for 24 hrs by MTT assay; format: toxicity, cell-based
[8] = Cytotoxicity against mouse RAW264.7 cells incubated for 12 hrs by MTT assay; format: toxicity, cell-based
[9] = target: T1, Tyrosine-protein kinase JAK3 (Homo sapiens, UniProt P52333); assay: Inhibition of JAK3 (unknown origin) preincubated for 10 mins followed by kinase substrate and ATP addition and measured for 30 mins by mobility shift assay
T1 sequence (P52333 whole entry): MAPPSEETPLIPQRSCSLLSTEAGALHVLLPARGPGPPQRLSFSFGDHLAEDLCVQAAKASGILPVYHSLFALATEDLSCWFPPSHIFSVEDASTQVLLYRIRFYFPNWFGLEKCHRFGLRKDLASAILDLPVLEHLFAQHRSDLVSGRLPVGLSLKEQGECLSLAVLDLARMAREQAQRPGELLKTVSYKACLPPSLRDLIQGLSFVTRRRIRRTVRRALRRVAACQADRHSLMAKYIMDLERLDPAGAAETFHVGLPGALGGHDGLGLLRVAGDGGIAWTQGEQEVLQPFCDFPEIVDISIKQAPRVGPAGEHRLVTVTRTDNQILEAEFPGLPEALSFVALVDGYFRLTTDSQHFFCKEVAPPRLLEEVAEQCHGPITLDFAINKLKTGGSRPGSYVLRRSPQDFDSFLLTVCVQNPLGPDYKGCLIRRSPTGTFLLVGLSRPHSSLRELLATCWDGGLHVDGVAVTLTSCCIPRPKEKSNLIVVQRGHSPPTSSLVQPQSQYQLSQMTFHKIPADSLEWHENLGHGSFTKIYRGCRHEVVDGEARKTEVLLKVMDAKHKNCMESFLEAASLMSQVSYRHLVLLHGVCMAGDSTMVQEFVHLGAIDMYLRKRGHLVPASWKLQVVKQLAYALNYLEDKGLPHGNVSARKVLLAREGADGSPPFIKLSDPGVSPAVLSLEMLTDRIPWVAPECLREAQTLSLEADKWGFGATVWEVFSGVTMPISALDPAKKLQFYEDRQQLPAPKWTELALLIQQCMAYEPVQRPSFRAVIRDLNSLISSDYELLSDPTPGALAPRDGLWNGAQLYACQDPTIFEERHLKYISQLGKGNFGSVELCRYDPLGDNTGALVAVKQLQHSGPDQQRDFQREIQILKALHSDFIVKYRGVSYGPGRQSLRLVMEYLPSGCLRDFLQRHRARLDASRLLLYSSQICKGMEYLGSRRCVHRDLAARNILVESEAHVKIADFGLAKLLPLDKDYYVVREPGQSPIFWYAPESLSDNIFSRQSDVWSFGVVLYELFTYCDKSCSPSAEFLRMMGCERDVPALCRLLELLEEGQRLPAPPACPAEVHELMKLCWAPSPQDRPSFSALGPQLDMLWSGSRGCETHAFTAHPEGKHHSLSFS

[10] = Cytotoxicity against HUVEC cells incubated for 24 hrs by MTT assay; format: toxicity, cell-based; details: human
[11] = target: Tyrosine-protein kinase BTK (Homo sapiens, UniProt Q06187); assay: Inhibition of BTK (unknown origin) preincubated for 10 mins followed by kinase substrate and ATP addition and measured for 20 mins by mobility shift assay
Sequence of Tyrosine-protein kinase BTK (Q06187 whole entry): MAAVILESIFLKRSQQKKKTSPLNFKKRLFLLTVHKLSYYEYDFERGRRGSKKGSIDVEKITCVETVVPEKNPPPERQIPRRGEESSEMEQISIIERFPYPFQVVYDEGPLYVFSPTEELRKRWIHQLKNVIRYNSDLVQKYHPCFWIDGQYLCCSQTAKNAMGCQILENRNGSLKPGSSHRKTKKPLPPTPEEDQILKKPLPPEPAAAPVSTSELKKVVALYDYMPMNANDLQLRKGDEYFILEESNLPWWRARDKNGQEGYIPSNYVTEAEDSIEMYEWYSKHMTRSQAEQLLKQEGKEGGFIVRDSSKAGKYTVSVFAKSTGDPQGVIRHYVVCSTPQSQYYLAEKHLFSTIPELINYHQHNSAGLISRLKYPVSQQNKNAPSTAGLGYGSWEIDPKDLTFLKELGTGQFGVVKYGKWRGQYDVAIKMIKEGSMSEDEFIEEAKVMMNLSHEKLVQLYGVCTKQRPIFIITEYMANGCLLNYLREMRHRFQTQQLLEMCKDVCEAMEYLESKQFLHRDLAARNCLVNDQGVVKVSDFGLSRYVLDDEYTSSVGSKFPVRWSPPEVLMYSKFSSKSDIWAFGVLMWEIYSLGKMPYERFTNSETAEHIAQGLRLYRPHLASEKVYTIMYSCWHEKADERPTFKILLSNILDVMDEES

[12] = Cytotoxicity against rat NRK cells incubated for 24 hrs by MTT assay; format: toxicity, cell-based
[13] = Tmax in Sprague-Dawley rat at 50 mg/kg, po by LC/MS analysis; format: ADME, organism-based; details: in vivo
[14] = Half life in Sprague-Dawley rat at 50 mg/kg, po by LC/MS analysis; format: ADME, organism-based; details: in vivo
[15] = Cytotoxicity against human L02 cells incubated for 48 hrs by MTT assay; format: toxicity, cell-based
[16] = Cytotoxicity against mouse RAW264.7 cells incubated for 48 hrs by MTT assay; format: toxicity, cell-based
[17] = target: Voltage-gated inwardly rectifying potassium channel KCNH2 (Homo sapiens, UniProt Q12809); assay: Inhibition of human ERG by patch clamp assay
Sequence of Voltage-gated inwardly rectifying potassium channel KCNH2 (Q12809 whole entry): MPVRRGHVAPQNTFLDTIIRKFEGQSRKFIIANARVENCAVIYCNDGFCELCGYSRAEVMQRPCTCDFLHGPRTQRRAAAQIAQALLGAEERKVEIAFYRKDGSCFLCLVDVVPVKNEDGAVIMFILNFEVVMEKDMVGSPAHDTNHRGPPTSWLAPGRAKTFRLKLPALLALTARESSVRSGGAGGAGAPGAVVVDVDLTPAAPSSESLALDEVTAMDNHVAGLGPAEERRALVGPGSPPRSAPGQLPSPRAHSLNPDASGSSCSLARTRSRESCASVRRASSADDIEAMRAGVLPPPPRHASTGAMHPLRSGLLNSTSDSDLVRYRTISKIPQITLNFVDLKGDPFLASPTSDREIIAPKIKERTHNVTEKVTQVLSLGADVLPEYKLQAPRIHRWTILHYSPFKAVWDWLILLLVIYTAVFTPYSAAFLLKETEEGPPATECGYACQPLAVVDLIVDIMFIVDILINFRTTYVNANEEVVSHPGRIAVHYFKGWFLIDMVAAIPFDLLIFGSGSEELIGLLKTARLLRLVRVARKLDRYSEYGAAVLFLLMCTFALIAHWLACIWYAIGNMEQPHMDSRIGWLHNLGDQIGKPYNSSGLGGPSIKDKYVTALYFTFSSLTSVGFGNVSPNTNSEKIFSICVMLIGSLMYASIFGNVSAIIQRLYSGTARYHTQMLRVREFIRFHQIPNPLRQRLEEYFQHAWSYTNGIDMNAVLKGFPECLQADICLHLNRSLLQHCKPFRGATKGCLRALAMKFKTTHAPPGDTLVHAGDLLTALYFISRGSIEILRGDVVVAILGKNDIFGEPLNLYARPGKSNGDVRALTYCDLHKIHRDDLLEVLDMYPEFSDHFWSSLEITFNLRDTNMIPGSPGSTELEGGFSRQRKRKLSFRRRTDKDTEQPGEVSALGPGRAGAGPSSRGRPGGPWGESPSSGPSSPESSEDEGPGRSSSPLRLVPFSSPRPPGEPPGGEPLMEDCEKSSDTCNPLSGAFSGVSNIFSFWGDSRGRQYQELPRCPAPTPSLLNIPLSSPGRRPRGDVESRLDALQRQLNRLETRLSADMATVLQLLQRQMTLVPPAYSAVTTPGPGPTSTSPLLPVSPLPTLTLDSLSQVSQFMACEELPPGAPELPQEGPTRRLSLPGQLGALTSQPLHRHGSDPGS

[18] = Cytotoxicity against human L02 cells incubated for 12 hrs by MTT assay; format: toxicity, cell-based
[19] = Cytotoxicity against rat NRK cells incubated for 48 hrs by MTT assay; format: toxicity, cell-based
[20] = Oral bioavailability in Sprague-Dawley rat at 50 mg/kg measured for 720 mins by LC/MS analysis; format: ADME, organism-based; details: in vivo
BaF3 = assay: Antiproliferative activity against mouse BaF3 cells expressing JAK3 mutant assessed as inhibition of cell growth incubated for 72 hrs by Cell Titer-Glo assay; format: functional, cell-based; details: BaF3, 72 h
[21] = Observed MRT(infinity) in Sprague-Dawley rat at 50 mg/kg, po measured for 720 mins by LC/MS analysis; format: ADME, organism-based; details: in vivo
[22] = target: Tyrosine-protein kinase JAK1 (Homo sapiens, UniProt P23458); assay: Inhibition of JAK1 (unknown origin) using kinetic substrate in presence of ATP by mobility shift assay
[23] = Cytotoxicity against rat NRK cells incubated for 12 hrs by MTT assay; format: toxicity, cell-based
[24] = target: Tyrosine-protein kinase JAK2 (Homo sapiens, UniProt O60674); assay: Inhibition of JAK2 (unknown origin) using kinetic substrate in presence of ATP by mobility shift assay
Sequence of Tyrosine-protein kinase JAK2 (O60674 whole entry): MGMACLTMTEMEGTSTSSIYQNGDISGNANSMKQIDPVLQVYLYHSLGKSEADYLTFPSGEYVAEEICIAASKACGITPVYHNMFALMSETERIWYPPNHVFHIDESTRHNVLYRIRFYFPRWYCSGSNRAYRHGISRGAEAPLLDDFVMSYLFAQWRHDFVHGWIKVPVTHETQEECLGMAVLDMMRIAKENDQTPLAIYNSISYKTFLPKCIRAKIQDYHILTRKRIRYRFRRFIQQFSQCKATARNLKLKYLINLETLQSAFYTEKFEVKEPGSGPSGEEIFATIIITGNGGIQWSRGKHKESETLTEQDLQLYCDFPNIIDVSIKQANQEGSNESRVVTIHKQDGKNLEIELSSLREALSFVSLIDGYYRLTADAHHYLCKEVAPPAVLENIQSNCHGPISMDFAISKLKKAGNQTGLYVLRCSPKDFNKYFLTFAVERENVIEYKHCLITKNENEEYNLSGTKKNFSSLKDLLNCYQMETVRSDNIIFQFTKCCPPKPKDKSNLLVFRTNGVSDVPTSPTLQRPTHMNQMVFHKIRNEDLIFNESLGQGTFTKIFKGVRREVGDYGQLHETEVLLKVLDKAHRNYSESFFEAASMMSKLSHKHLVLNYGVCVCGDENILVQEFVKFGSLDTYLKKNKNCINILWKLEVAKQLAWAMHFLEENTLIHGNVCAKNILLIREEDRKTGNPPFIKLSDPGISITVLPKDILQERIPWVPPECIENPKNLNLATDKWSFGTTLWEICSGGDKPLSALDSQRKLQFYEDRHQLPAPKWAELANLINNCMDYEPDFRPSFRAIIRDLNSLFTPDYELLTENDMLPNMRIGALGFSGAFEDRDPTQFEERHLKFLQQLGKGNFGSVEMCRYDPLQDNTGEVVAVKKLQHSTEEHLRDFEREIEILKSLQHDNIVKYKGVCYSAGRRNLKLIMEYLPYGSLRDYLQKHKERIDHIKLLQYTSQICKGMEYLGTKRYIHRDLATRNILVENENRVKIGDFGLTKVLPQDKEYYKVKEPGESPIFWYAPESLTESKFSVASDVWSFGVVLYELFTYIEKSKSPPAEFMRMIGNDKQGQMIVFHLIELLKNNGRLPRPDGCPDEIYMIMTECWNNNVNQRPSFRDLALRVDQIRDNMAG

[25] = Cytotoxicity against HUVEC cells incubated for 12 hrs by MTT assay; format: toxicity, cell-based; details: human
[26] = AUC(all) in Sprague-Dawley rat at 5 mg/kg, iv measured for 720 mins by LC/MS analysis; format: ADME, organism-based; set-up: time 720 min, dose 5 mg/kg, route iv; details: in vivo
Daudi = assay: Antiproliferative activity against human Daudi cells assessed as inhibition of cell growth incubated for 72 hrs by Cell Titer-Glo assay; format: functional, cell-based
[27] = target: Non-receptor tyrosine-protein kinase TYK2 (Homo sapiens, UniProt P29597); assay: Inhibition of TYK2 (unknown origin) using kinetic substrate in presence of ATP by mobility shift assay
Sequence of Non-receptor tyrosine-protein kinase TYK2 (P29597 whole entry): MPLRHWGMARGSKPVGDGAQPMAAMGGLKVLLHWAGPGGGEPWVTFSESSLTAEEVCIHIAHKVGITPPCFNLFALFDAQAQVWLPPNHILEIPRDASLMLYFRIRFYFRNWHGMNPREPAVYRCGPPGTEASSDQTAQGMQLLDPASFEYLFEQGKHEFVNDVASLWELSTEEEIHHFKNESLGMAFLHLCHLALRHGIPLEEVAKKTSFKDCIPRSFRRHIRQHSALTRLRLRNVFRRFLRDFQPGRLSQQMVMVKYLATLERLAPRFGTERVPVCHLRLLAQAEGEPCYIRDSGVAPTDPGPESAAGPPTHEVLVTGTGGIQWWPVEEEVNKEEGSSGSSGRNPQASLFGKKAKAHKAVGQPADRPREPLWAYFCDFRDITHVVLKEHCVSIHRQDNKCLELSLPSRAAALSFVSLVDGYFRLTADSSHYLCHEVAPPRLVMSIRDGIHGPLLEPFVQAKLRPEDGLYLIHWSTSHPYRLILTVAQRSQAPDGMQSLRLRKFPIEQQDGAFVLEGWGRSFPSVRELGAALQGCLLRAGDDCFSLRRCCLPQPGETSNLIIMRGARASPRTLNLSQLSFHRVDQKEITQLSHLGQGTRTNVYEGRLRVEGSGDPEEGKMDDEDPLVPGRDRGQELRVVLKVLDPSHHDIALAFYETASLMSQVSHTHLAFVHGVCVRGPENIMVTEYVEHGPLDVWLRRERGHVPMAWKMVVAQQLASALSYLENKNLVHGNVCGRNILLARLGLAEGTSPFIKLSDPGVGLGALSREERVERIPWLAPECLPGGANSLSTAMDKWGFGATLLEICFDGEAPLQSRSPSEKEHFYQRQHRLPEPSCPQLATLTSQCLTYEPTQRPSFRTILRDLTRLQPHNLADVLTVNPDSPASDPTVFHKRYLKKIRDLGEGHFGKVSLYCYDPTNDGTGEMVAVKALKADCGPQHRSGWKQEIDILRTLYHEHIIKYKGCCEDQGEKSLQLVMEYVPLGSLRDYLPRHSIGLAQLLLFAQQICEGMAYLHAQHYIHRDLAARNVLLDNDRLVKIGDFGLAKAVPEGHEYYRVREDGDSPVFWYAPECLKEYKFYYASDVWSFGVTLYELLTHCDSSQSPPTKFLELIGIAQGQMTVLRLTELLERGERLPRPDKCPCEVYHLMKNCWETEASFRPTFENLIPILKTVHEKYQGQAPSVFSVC

With `C=CC(=O)N1CCC[C@@H](n2nc(-c3ccc(NC(=O)c4ccc(N(C)C)cc4)c4c3OCO4)c3c(N)ncnc32)C1` the MLD [1] was > 1600 mg/kg, the Cmax [2] was 0.209 µg/mL and the IC50 at 48 h [3] was 27.3 µM. It also gave an IC50 at 24 h [4] of 50.6 µM, an AUC at 12 h [5] of 0.437 µg·h/mL and an MRT inf [6] of 9.36 min. It also gave an IC50 at 24 h [7] of 28.2 µM, an IC50 at 12 h [8] of 60.8 µM and an IC50 [9] of 0.014 µM. It also gave an IC50 at 24 h [10] of 40.6 µM, an IC50 [11] of 0.002 µM and an IC50 at 24 h [12] of 15.7 µM. For the same compound, the Tmax [13] was 0.459 h, the half-life [14] was 2.57 h and the IC50 at 48 h [15] was 9.61 µM. It also gave an IC50 at 48 h [16] of 19.7 µM, an IC50 [17] of 14.8 µM and an IC50 at 12 h [18] of 69.9 µM. The IC50 at 48 h [19] was 11.8 µM, the bioavailability [20] was 13.2% and the IC50 (BaF3) was 0.366 µM. For the same compound, the MRT inf [21] was 3.4 h, the IC50 [22] was > 10 µM and the IC50 at 12 h [23] was 51 µM. For the same compound, the IC50 [24] was > 10 µM, the IC50 at 12 h [25] was 50 µM and the AUC at 12 h [26] was 0.299 µg·h/mL. The IC50 (Daudi) was 0.69 µM and the IC50 [27] was > 10 µM.
